Source: US20230203506A1, “LACTIC ACID OPTICAL PROBE, PREPARATION METHOD THEREFOR AND APPLICATION THEREOF” (East China University of Science and Technology, priority 2019, published 2023)

Tests used:
[1] = Lactate response detection of purified probe (signal with 10 mM lactate divided by signal without lactate); type: biochemical; conditions: M185 saturation mutants of two-site mutants of LldR(80-258)-185/189-cpYFP
[2] = as above; type: biochemical; conditions: detection signal with 10 mM lactate divided by signal without lactate; mutants of LldR(80-258)-185/189-cpYFP
Method: 4. After purified proteins were subjected to SDS-PAGE, probes were diluted to a protein solution having a final concentration of 5-10 μM using assay buffer (100 mm HEPES, 100 mM NaCl, pH 7.3) or phosphate buffer PBS.
(§1) 6. […] The fluorescence excitation and emission determination of the samples were done using a multifunctional fluorescence microplate reader.
Mutants of the two sites, 189 and 190, were constructed on the basis of LldR(80-258)-185/189-cpYFP. Plasmid pCDFDuet-LldR(80-258)-185/189-cpYFP was linearized by reverse PCR, mutations were introduced at mutation sites by primers, and the obtained PCR products was ligated by adding phosphorus with PNK, T4 DNA ligase, and PEG4000, transformed into BL21 (DE3), and then screened. […] Exemplary nucleic acid sequences were shown in SEQ ID No: 31 (LldR(80-258)-185/189-P189F/P190D-cpYFP).

[3] = Lactate concentration-gradient titration of purified probe (ratio of 420 nm to 485 nm excitation, 528 nm emission); type: binding; conditions: ratio 420 nm/485 nm excitation
Description: as §1

| Substance | Response of the three-site mutants to lactate [1] | Responses to lactate for 189 mutant versus 190 mutant [2] | also measured |
| --- | --- | --- | --- |
| M185A/P189M/P190D: three-site mutant of LldR(80-258)-185/189-cpYFP; Table 4 row printed WD | 8.4 | – | – |
| M185F/P189H/P190D: three-site mutant of LldR(80-258)-185/189-cpYFP | 8.0 | – | – |
| M185L/P189H/P190D: three-site mutant of LldR(80-258)-185/189-cpYFP | 15.3 | – | – |
| M185L/P189M/P190D: three-site mutant of LldR(80-258)-185/189-cpYFP; Table 4 row printed WD | 5.6 | – | – |
| M185S/P189H/P190D: three-site mutant of LldR(80-258)-185/189-cpYFP | 7.0 | – | – |
| M185V/P189H/P190D: three-site mutant of LldR(80-258)-185/189-cpYFP | 6.2 | – | – |
| P189/P190(WT): lactate optical probe, cpYFP inserted at 185/189 of LldR(80-258), unmutated | – | 0.2 | – |
| P189C/P190F: LldR(80-258)-185/189-cpYFP mutant | – | 2.3 | – |
| P189C/P190Y: LldR(80-258)-185/189-cpYFP mutant | – | 4.0 | magnitude of change [3]: 4.3 fold; Kd ([3]; read-out: Kd (binding constant)): 41 µM |
| P189F/P190D: LldR(80-258)-185/189-cpYFP mutant | – | 13.4 | – |
| P189F/P190H: LldR(80-258)-185/189-cpYFP mutant | – | 3.7 | – |
| P189H/P190D: LldR(80-258)-185/189-cpYFP mutant | – | 8.9 | – |
| P189H/P190R: LldR(80-258)-185/189-cpYFP mutant | – | 3.2 | – |
| P189M/P190D: LldR(80-258)-185/189-cpYFP mutant | – | 7.0 | – |
| P189N/P190F: LldR(80-258)-185/189-cpYFP mutant | – | 2.3 | – |
| P189N/P190Y: LldR(80-258)-185/189-cpYFP mutant | – | 3.1 | – |
| P189N: LldR(80-258)-185/189-cpYFP mutant | – | 2.1 | – |
| P189R/P190I: LldR(80-258)-185/189-cpYFP mutant | – | 3.5 | – |
| P189S: LldR(80-258)-185/189-cpYFP mutant | – | 3.3 | – |
